PMC12352620, “Fragment-based discovery of dual ligand pharmacophores for lipid-sensing transcription factors for designed polypharmacology” (RSC Medicinal Chemistry, 2025)

Key:
Type in all cases: cell-based
THRα = target: T1, THRα (Homo sapiens, UniProt P10827); test: Gal4-hybrid reporter gene assay THRα; conditions: for max. fold activation THRα: maximum reporter activation vs DMSO (0.1%) treated cells
T1 construct: expressed in transfected cells; host or cells: HEK293T
T1 sequence (P10827 128-410 isoform P10827-2 limits assumed): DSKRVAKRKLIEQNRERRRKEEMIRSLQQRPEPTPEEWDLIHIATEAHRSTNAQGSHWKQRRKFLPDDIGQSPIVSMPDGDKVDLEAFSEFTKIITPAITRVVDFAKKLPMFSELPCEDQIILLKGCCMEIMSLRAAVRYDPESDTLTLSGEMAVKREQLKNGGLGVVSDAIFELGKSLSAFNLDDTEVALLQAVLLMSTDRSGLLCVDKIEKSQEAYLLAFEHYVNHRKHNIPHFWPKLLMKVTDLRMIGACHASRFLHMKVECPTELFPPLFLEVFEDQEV
Experimental: (§1) NR modulation was determined as described previously[45] in Gal4 hybrid reporter gene assays in HEK293T cells (German Collection of Microorganisms and Cell Culture GmbH, DSMZ) using pFR-Luc (Stratagene, La Jolla, CA, USA; reporter), pRL-SV40 (Promega, Madison, WI, USA; internal control) and the hybrid receptor clones pFA-CMV-hTHRα-LBD,[46] pFA-CMV-hPPARγ-LBD,[47] pFA-CMV-hFXR-LBD,[48] and pFA-CMV-hRXRα-LBD,[49] coding for the hinge region and ligand binding domain of the canonical isoform of the respective NR. Cells were cultured in Dulbecco's modified Eagle's medium (DMEM), high glucose supplemented with 10% fetal calf serum (FCS), sodium pyruvate (1 mM), penicillin (100 U mL^−1), and streptomycin (100 μg mL^−1) at 37 °C and 5% CO2 and seeded in 96-well plates (3 × 10^4 cells per well). After 24 h, medium was changed to Opti-MEM without supplements and cells were transiently transfected using Lipofectamine LTX reagent (Invitrogen, Carlsbad, CA, USA) according to the manufacturer's protocol. Five hours after transfection, cells were incubated with the test compounds in Opti-MEM supplemented with penicillin (100 U mL^−1), streptomycin (100 μg mL^−1) and 0.1% DMSO for 16 h before luciferase activity was measured using the Dual-Glo Luciferase Assay System (Promega) according to the manufacturer's protocol on a Tecan Spark luminometer (Tecan Deutschland GmbH, Crailsheim, Germany). Firefly luminescence was divided by Renilla luminescence and multiplied by 1000 resulting in relative light units (RLU) to normalize for transfection efficiency and cell growth. Fold activation was obtained by dividing the mean RLU of test compound by the mean RLU of the untreated control. All samples were tested in at least three biologically independent experiments in duplicates. For dose–response curve fitting and calculation of EC50 values, the equation “[agonist] vs. response − variable slope (four parameters)” was used in GraphPad Prism (version 7.00, GraphPad Software, La Jolla, CA, USA). For selectivity profiling, the hybrid reporter gene assay was performed with Gal4 fusion receptor plasmids for RARα, PPARα, PPARδ, VDR, CAR and LXRα. The following reference agonists were used: triiodothyronine (1 μM, THR), all-trans retinoic acid (1 μM, RAR), GW7647 (1 μM, PPARα), pioglitazone (1 μM, PPARγ), L165041 (1 μM, PPARδ), calcitriol (1 μM, VDR), CITCO (1 μM, CAR), T0901317 (1 μM, LXR), GW4064 (1 μM, FXR), bexarotene (1 μM, RXR).

PPARγ = target: T2, PPARγ (Homo sapiens, UniProt P37231); test: Gal4-hybrid reporter gene assay PPARγ; conditions: mean ± S.E.M., n ≥ 3; for max. fold activation PPARγ: maximum reporter activation vs DMSO (0.1%) treated cells
T2 construct: expressed in transfected cells; host or cells: HEK293T
T2 sequence (P37231 238-503 limits assumed): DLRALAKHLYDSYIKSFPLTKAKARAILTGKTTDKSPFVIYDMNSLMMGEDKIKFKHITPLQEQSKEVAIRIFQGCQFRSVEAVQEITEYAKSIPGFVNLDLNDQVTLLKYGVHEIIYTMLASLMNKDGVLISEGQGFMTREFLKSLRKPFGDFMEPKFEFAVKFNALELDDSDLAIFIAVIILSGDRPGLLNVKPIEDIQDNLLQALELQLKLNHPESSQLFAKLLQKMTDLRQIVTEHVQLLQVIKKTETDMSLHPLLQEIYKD
Experimental: as §1

FXR = target: T3, FXR (Homo sapiens, UniProt Q96RI1); test: Gal4-hybrid reporter gene assay FXR; conditions: mean ± S.E.M., n ≥ 3; for EC50 / EC50 FXR: HEK293T, Gal4-hybrid reporter, Inactive = tested 1–300 μM; for max. fold activation FXR: maximum reporter activation vs DMSO (0.1%) treated cells
T3 construct: expressed in transfected cells; host or cells: HEK293T
T3 sequence (Q96RI1 262-486 limits assumed): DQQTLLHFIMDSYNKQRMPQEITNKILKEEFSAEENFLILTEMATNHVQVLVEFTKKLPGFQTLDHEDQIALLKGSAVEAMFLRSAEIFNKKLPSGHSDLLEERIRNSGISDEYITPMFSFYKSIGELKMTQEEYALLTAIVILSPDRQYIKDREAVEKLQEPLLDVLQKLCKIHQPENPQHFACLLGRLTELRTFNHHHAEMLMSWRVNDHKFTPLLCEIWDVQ
Experimental: as §1

RXRα = target: T4, RXRα (Homo sapiens, UniProt P19793); test: Gal4-hybrid reporter gene assay RXRα; conditions: mean ± S.E.M., n ≥ 3; for EC50 / EC50 RXRα: HEK293T, Gal4-hybrid reporter, Inactive = tested 1–300 μM; for max. fold activation RXRα: maximum reporter activation vs DMSO (0.1%) treated cells
T4 construct: expressed in transfected cells; host or cells: HEK293T
T4 sequence (P19793 227-458 limits assumed): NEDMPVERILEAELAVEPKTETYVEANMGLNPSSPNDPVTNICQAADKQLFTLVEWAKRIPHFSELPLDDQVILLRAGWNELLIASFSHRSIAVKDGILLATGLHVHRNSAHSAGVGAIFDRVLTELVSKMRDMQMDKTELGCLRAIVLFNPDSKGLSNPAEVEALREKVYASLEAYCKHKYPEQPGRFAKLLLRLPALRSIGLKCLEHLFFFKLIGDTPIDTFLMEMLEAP
Experimental: as §1

[1] = HEK293T, Gal4-hybrid reporter, Inactive = tested 1–300 μM, mean ± S.E.M., n ≥ 3
[2] = HEK293T, Gal4-hybrid reporter, Inactive = tested 1–300 μM

| EC50 (THRα; [1]) | max. fold activation THRα (THRα; mean ± S.E.M., n ≥ 3) | EC50 (PPARγ; [2]) | max. fold activation PPARγ (PPARγ) | EC50 (FXR) | max. fold activation FXR (FXR) | EC50 (RXRα) | max. fold activation RXRα (RXRα) | type of activity on THRα (THRα; Gal4-hybrid reporter gene assay) | remaining THRα activity (THRα; inverse agonism, % remain., mean ± S.E.M., n ≥ 3) | IC50 (THRα; inverse agonism, mean ± S.E.M., n ≥ 3) | EC50 PPARγ (PPARγ; [2]) | EC50 FXR (FXR) | EC50 RXRα (RXRα) | EC50 THRα (THRα; [1]) | Structure (SMILES) |
| --- | --- | --- | --- | --- | --- | --- | --- | --- | --- | --- | --- | --- | --- | --- | --- |
| 31 ± 7 µM | (2.4 ± 0.3-fold) | 32 ± 1 µM | (20 ± 1-fold) | 39 ± 3 µM | (3.8 ± 0.4-fold) | 50 ± 4 µM | (7 ± 2-fold) |  |  |  |  |  |  |  | Cc1ccccc1C(=O)/C=C/C(=O)O [4.2, (E)-4-Oxo-4-(o-tolyl)but-2-enoic acid] |
| 19 ± 8 µM | (3.1 ± 0.6-fold) | 38 ± 1 µM | (19 ± 1-fold) | 22 ± 5 µM | (3.4 ± 0.4-fold) | 30 ± 5 µM | (4.7 ± 0.5-fold) |  |  |  |  |  |  |  | Cc1cccc(C(=O)/C=C/C(=O)O)c1 [4.3, (E)-4-Oxo-4-(m-tolyl)but-2-enoic acid] |
| 28 ± 3 µM | (3.4 ± 0.4-fold) | 37 ± 1 µM | (17.5 ± 0.9-fold) | 27 ± 9 µM | (3.4 ± 0.7-fold) | 35 ± 1 µM | (5.3 ± 0.2-fold) |  |  |  |  |  |  |  | Cc1ccc(C(=O)/C=C/C(=O)O)cc1 [4.4, (E)-4-Oxo-4-(p-tolyl)but-2-enoic acid] |
| 46 ± 7 µM | (7 ± 2-fold) | 30 ± 4 µM | (12 ± 2-fold) | 40 ± 3 µM | (3.1 ± 0.3-fold) | 46 ± 1 µM | (4.0 ± 0.2-fold) |  |  |  |  |  |  |  | O=C(O)/C=C/C(=O)c1ccc(Cl)cc1 [4.5, (E)-4-Oxo-4-(4-chlorophenyl)but-2-enoic acid] |
|  |  |  |  |  |  |  |  | Inverse agonist | (41 ± 5% remain.) | 36 µM | Inactive | Inactive | Inactive |  | O=C(O)C(c1ccccc1)(c1ccccc1)c1ccccc1 [compound 19] |
| 185 ± 16 µM | (2.5 ± 0.4-fold) | 53 ± 5 µM | (2.4 ± 0.1-fold) | 162 ± 31 µM | (2.2 ± 0.3-fold) |  |  |  |  |  |  |  | Inactive |  | CSc1nccn1-c1ccc(C(=O)O)cc1 [compound 30] |
| 194 ± 54 µM | (5 ± 1-fold) | 126 ± 17 µM | (14 ± 1-fold) | 53 ± 10 µM | (1.9 ± 0.1-fold) | 54 ± 9 µM | (2.2 ± 0.13-fold) |  |  |  |  |  |  |  | O=C(O)c1ccc(-c2cccc(F)c2)o1 [compound 53] |
|  |  | 39 ± 3 µM | (9.6 ± 0.5-fold) |  |  |  |  |  |  |  |  | Inactive | Inactive | Inactive | N#Cc1c(F)c(F)cc(C(=O)O)c1F [compound 58] |
| 112 ± 44 µM | (2.0 ± 0.1-fold) | 237 ± 37 µM | (6 ± 1-fold) |  |  | 166 ± 10 µM | (1.6 ± 0.1-fold) |  |  |  |  | Inactive |  |  | CCc1c(C(=O)O)cnn1-c1ccccc1 [compound 78] |

| Structure (SMILES) | EC50 (THRα; [1]) | max. fold activation THRα (THRα; mean ± S.E.M., n ≥ 3) | EC50 (PPARγ; [2]) | max. fold activation PPARγ (PPARγ) | EC50 (FXR) | max. fold activation FXR (FXR) | EC50 (RXRα) | max. fold activation RXRα (RXRα) | type of activity on THRα (THRα; Gal4-hybrid reporter gene assay) | remaining THRα activity (THRα; inverse agonism, % remain., mean ± S.E.M., n ≥ 3) | IC50 (THRα; inverse agonism, mean ± S.E.M., n ≥ 3) | EC50 PPARγ (PPARγ; [2]) | EC50 FXR (FXR) | EC50 RXRα (RXRα) | EC50 THRα (THRα; [1]) |
| --- | --- | --- | --- | --- | --- | --- | --- | --- | --- | --- | --- | --- | --- | --- | --- |
| O=C(O)c1ccc(OCc2ccccc2)cc1 [compound 22] | 95 ± 9 µM | (8.8 ± 0.5-fold) | 136 ± 19 µM | (28 ± 2-fold) |  |  |  |  |  |  |  |  | Inactive | Inactive |  |
| O=C(O)c1ccc(Oc2ccccc2)cc1 [compound 44] | 105 ± 28 µM | (18 ± 3-fold) | 99 ± 12 µM | (38 ± 3-fold) |  |  |  |  |  |  |  |  | Inactive | Inactive |  |
